Data taken from patent US5728726A, “Method and compositions for inhibiting protein kinases” (Cor Therapeutics, Inc., priority 1995, dated 1998).
Like-named read-outs stand apart in the source and are kept apart here.

Key:
[1] = tested on: human cell lines (HS68, HS 27, CCD18, and WS1); settings: 96 hours
HS68 = test: cell proliferation under normal tissue culture conditions, HS68; settings: Homo sapiens, Hs68, 96 h, read-out: IC50 HS68
Protein Kinase C (PKC) = test: Protein Kinase C non-radioactive kinase assay (UBI); settings: at a concentration of 40 μm
CCD18 = test: cell proliferation under normal tissue culture conditions, CCD18; format: cell-based; settings: Homo sapiens, read-out: IC50 CCD18
HS68 cells = test: PDGF BB-induced [3H]thymidine incorporation into HS68 cells; format: cell-based; settings: Homo sapiens, Hs68, read-out: concentration blocking PDGF BB induced thymidine incorporation by 50%
Description: […]. Since there are many reports in the literature implicating PDGF in diseases such as glomerulonephritis, cancer, atherosclerosis, and restenosis we tested 292 for its ability to block PDGF induced cell proliferation. A human primary fibroblast cell line, HS68 (ATCC), was plated into 96 well dishes at 150,000 cells/well in media containing 10% fetal bovine serum in DMEM. The cells were incubated at 37° C. for 7-10 days at which time they had become confluent and quiescent. […] To determine the level of cell proliferation, […] of [^3 H ]thymidine were added to each well and incubation was continued for an additional 5 hours. Cells were then washed with 5% cold trichloroacetic acid (TCA), solubilized in 0.2N NaOH, 0.1% SDS and the amount of [^3 H]thymidine incorporation was determined. […].

Protein Kinase A (PKA) = Protein Kinase A (PKA) (Homo sapiens, UniProt P17612); test: Protein Kinase A non-radioactive kinase assay (UBI)
human FGF receptor-1 = target: T1, human FGF receptor-1 (Homo sapiens, UniProt P11362); test: FGF receptor-1 autophosphorylation in CHO cells; format: cell-based
T1 construct: expressed in transfected cells; host or cells: CHO cells
Description: In order to measure FGF receptor-1 autophosphorylation, the human FGF receptor-1 cDNA was stably over-expressed in CHO cells using standard techniques. These cells were grown to confluency in RPMI with 10% fetal bovine serum, the media was replaced with serum-free RPMI and incubation continued for 18 hours prior to stimulation with BFGF (75 ng/ml) for 10 min at 37° C. in the absence of presence or PTK inhibitors in a concentration range of 0.1-30 μM Cell lysates were prepared under the same conditions as described above for the EGF receptor assay. Lysates were incubated with a monoclonal antibody directed against the FGF receptor-1 extracellular domain (prepared at COR Therapeutics, South San Francisco, Calif.) and the immunoprecipitated receptor was subjected to SDS-PAGE and Western blot analysis with antiphosphotyrosine antibodies as described above for EGF receptor.

WS1 = test: cell proliferation under normal tissue culture conditions, WS1; format: cell-based; settings: Homo sapiens, read-out: IC50 WS1
human beta PDGFR = human beta PDGFR (Homo sapiens, UniProt P09619); test: beta PDGF receptor autophosphorylation in HR5 cells
[2] = tested on: human cell lines (HS68, HS 27, CCD18, and WS1); test: cells
HS27 = test: cell proliferation under normal tissue culture conditions, HS27; format: cell-based; settings: Homo sapiens, read-out: IC50 HS27
recombinant c-src = recombinant c-src (Homo sapiens, UniProt P12931); test: recombinant c-src kinase microtiter plate assay
Sequence of recombinant c-src (P12931 whole entry): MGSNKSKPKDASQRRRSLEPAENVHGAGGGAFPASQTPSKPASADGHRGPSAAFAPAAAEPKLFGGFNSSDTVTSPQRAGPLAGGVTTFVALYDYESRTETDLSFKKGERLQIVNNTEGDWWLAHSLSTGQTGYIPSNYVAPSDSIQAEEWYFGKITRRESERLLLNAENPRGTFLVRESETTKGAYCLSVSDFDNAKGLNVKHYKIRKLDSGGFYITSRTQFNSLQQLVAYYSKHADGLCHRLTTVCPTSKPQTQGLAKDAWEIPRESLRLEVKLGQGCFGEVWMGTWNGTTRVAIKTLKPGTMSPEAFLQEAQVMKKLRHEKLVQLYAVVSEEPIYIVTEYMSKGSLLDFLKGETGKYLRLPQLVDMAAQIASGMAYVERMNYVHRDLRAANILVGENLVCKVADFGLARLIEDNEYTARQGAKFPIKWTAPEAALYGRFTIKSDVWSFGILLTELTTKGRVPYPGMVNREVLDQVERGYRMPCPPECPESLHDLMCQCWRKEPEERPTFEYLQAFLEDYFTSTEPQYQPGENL
Description: After a 20 minute incubation at 37° C., the reactions were stopped by adding 10 ul of 50% acetic acid, the wells were washed and anti-phosphotyrosine antibody was used to detect the tyrosine phosphorylated substrate under the same conditions as described above for the detection of phosphorylated PDGF receptor.

Sequence of human beta PDGFR (P09619 33-1106): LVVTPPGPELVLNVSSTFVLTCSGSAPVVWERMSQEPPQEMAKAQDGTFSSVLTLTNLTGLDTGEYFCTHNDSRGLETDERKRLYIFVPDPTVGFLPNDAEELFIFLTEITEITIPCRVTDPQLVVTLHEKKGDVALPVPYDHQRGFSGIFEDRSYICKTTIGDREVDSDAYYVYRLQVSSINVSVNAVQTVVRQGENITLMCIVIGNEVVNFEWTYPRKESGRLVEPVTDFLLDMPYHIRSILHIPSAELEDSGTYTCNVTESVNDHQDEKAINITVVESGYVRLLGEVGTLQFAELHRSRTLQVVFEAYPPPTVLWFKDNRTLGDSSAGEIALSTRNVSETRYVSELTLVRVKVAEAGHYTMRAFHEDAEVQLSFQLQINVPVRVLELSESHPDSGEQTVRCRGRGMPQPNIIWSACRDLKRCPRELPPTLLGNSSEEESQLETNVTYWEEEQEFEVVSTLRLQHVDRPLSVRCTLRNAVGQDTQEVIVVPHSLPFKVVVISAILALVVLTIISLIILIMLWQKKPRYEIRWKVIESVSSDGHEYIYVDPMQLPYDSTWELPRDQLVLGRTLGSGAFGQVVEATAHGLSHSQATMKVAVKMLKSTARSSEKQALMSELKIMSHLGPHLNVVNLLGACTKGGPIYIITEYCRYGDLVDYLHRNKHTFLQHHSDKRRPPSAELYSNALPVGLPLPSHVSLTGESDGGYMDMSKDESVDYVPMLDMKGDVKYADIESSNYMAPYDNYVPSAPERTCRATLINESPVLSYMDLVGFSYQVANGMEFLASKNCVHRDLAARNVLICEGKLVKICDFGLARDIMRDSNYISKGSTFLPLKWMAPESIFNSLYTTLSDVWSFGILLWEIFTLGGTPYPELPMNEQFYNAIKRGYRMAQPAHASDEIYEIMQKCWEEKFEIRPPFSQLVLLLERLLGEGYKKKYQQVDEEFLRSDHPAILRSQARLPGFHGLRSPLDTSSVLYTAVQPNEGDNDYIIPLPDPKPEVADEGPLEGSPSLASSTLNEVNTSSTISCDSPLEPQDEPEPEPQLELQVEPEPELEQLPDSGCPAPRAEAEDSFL
T1 sequence (P11362 22-822): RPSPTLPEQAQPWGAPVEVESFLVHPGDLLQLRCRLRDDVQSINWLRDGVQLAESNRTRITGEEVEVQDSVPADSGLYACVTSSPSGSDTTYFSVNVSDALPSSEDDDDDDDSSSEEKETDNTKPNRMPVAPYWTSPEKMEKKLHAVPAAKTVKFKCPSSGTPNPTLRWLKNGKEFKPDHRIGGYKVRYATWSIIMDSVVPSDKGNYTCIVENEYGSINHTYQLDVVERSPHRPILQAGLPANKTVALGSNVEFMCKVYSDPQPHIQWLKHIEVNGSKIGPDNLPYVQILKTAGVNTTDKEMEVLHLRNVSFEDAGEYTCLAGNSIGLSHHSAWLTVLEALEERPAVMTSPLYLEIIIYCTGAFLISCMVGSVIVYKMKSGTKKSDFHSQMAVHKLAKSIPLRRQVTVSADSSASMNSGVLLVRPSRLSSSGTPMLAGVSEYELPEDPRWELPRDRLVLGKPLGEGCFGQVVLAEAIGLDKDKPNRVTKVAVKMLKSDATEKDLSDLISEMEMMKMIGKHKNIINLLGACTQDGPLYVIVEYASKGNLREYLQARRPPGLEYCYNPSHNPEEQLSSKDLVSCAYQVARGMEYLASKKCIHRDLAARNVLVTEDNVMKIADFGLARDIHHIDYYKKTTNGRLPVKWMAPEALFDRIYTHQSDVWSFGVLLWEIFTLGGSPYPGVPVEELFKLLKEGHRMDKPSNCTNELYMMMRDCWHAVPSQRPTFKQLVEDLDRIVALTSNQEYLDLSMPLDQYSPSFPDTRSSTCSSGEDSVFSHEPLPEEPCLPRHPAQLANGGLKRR

SMILES: CN[C@@H]1C[C@H]2O[C@@](C)([C@@H]1OC)n1c3ccccc3c3c4c(c5c6ccccc6n2c5c31)C(=O)NC4 [Staurosporin, reference compound]
- concentration completely blocking the growth of all of the cell lines [1]: 10 nM

SMILES: COc1cc(O)c2c(c1)/C=C/C[C@H](O)[C@H](O)C(=O)/C=C\C[C@H](C)OC2=O [Compound 292]
- IC50 (HS68): > 30 µM
- reduction in PKC activity (Protein Kinase C (PKC)): did not achieve a 50% reduction
- IC50 (CCD18; Table 3, 96 hours, 10% fetal bovine serum): > 30 µM
- IC50 (HS68 cells): 0.016 µM
- decrease in cell growth of any of the cell lines tested ([1]; concentrations up to 10 μm): no decrease
- IC50 (Protein Kinase A (PKA)): > 40 µM
- reduction in PKA activity (Protein Kinase A (PKA); at a concentration of 40 μm): did not achieve a 50% reduction
- IC50 (human FGF receptor-1; Table 2, inhibition of protein kinase activity): > 30 µM
- inhibition of FGF receptor autophosphorylation (human FGF receptor-1; concentrations as high as 30 μM): no detectable inhibition
- IC50 (WS1; WS1, Table 3, 96 hours, 10% fetal bovine serum): > 30 µM
- IC100 (human beta PDGFR; read-out: concentrations at which complete inhibition was observed): > 0.2 µM
- inhibition at 30 µM ([2]; 96 h, read-out: decrease in cell growth): 10 to 20%
- IC50 (HS27; HS27, Table 3, 96 hours, 10% fetal bovine serum): > 30 µM

SMILES: COC(=O)[C@@]1(O)C[C@H]2O[C@]1(C)n1c3ccccc3c3c4c(c5c6ccccc6n2c5c31)C(=O)NC4 [Compound K252a, K252a, reference compound]
- IC50 (recombinant c-src): 0.02 µM
- IC50 (HS68): 5 µM
- IC50 (CCD18; 96 h): 1 µM
- IC50 (Protein Kinase A (PKA)): 0.07 µM
- IC50 (Protein Kinase A (PKA); IC50 PKA, Table 2, inhibition of protein kinase activity): 0.07 µM
- IC50 (WS1; WS1, 96 h): 5 µM
- IC50 (human beta PDGFR): 0.27 µM
- IC50 ([2]; read-out: concentration range inhibiting cell growth by 50%): 1 to 12 µM
- IC50 (HS27; HS27, 96 h): 12 µM
